The values that follow come from patent US12377069B2, “Compounds, compositions, methods of using, and methods for preparing compounds” (UNIVERSITY OF LOUISVILLE RESEARCH FOUNDATION, INC., priority 2018, dated 2025).

In assay [1] the test system is HT29 or Caco2 cells. Put plainly: Tight junction protein expression (RT PCR, immunoblot, confocal). The note with it: 24 h; for tight junction protein levels (Western blots; Cldn4 confocal imaging): HT29 and Caco2, 50 μM. It is filed as cell-based, human. On the procedure: Real time PCR: Total RNA was isolated from cells/tissue using Maxwell® 16 LEV simplyRNA tissue kit (Promega) and reverse transcribed with TaqManC Reverse transcription Kit (Applied Biosystems, CA, USA). The transcribed cDNA (after dilution) was mixed with 100 nM gene specific primers (Real time primers LLC) and 1×SYBR green reaction mix (Power SYBR® Green PCR Master Mix; Applied Biosystems, CA, USA). Changes in gene expression was analyzed using CFX96™ Real-Time System (Bio Rad) and fold change in expression was calculated using 2^ΔΔCT method using GAPDH/0-actin as house keeping gene and normalized with untreated control.
Immunoblots (Western blots): The total protein lysates were collected either from colon tissue/cells using radioimmunoprecipitation assay (RIPA) buffer (Sigma-Aldrich, USA) and quantified using BCA protein quantification kit (Thermo Scientific) as per instructional manual. Total protein (20-50 μg) of was resolved on NuPAGE™ 4-12% Bis-Tris gel (Novex Life technologies) and transferred to polyvinylidene difluoride membrane (0.22 μm pore; Millipore, USA). After blocking with 5% (w/v) skim milk powder (containing 1×TBS) for 1 h, the membrane was then incubated with respective antibodies at 4° C. overnight (dilutions of respective antibodies is given in Table A1). Next day, respective secondary antibody conjugated with Horseradish peroxidase were probed and the chemiluminescent substrate was used to detect the protein bands (ImageQuant LAS 4000). Densitometry analysis of bands were done using ImageJ software. Antibodies for Cldn4, Ocln, Cldn1, Cyp1A1, AhR, HO1, NQO1, Keap1, β-actin and Lamin B were purchased from Santa Cruz Biotechnologies (USA) and Nrf2 from Novus Biologicals (USA).
Confocal Imaging: HT29 or CaCo2 or BMDM cells (50,000 cells/well) were plated on to 8-well chambered slides (154534PK; ThermoFisher Scientific) allowed them to grow overnight. The cells were induced with vehicle (0.01% DMSO) or UroA (50 μM) or UAS03 (50 μM) for desired time points and fixed with cold methonol. […]
(In western blotting, separated proteins are transferred to a membrane and probed.)

The test system of assay [2] is NF-κB. Put plainly: NF-κB EMSA assay. In kind it is cell-based, mouse. Particulars: LPS 50 ng/mL, 6 hr. How it is done:
NF-κB EMSA assay: RAW 264.7 cells or BMDM were plated in 100 mm dishes (1×10^6) in DMEM supplemented with 10% fetal bovine serum (FBS), 100 U/ml penicillin, and […]. Cells were allowed to grow for 24 hr and after incubation, cells were treated with LPS (50 ng/mL) with and without UroA (50 μM) and UAS03 (50 μM) for 6 hr. After treatments, culture medium was removed and washed with PBS. Cells were scraped and pelleted down in PBS. Supernatant was discarded and pellet was used for isolation of nuclear and cytosolic protein using NE-PER Nuclear and Cytoplasmic kit (Thermo Scientific; Cat #78833). Later nuclear protein (2 μg) was used for EMSA using Non-Radioactive EMSA Kits with IR Fluo-Probes for Nuclear factor kappa B p65 (Viagene Biotech Inc Cat #IRTF282 60).
For orientation: In EMSA bound probe runs differently from free probe, usually more slowly.

The test system of assay [3] is C57BL/6 mice. Put plainly: In vivo Miles assay (VEGF). Particulars: 20 mg/kg oral gavage; VEGF 2.5 ng/mouse. On the procedure:
Acute intoxication of alcohol can induce microvasculature leakage as well as direct exposure to endothelium leads to disruption of endothelial integrity. […] In addition, increased endothelial permeability enhances the extravasation of immune cells into liver leading to increased inflammation. To examine the effect of UroA/UAS03 on endothelial cell permeability, we utilized in vivo Evans Blue permeability assay. Briefly, C57BL/6 mice (n=4/group) were given LPS (100 μg) i.p. followed by treatment with UAS03 or UroA (20 mg/kg) after 1 h and 18 h. Evans blue (i.v.) was given to mice (24 h post LPS treatment) and 30 min later mice were euthanized and the Evans Blue from lung and liver tissues was extracted using formamide. The levels of Evans Blue was determined by OD at 620 nm. […] To evaluate direct impact of UroA or UAS03 on endothelial barrier function, we used in vivo Miles assay to test blood vessel permeability. We used vascular endothelial growth factor (VEGF) as vasodilator. In this assay, C57BL/6 mice (n=3 per group) were given vehicle or UroA or UAS03 (20 mg/kg; oral gavage). After 3 h, Evans blue (100 μL of 1% solution) was administered i.v. followed by intra-dermal administration of VEGF (2.5 ng/mouse) or PBS (control). […]

In assay [4] the test system is HeLa cells. Put plainly: Autophagy induction (RFP-GFP-LC3). It is filed as cell-based. Particulars: 2 hours treatment. How it is done:
Autophagy induction after compound treatment for 2 hours is assessed by the presence of red and green punctate inside the cells. The HeLa cells were transfected with RFP-GFP-LC3 plasmid 48 hours prior to drug treatments. After drug treatment for 2 hours the cells are fixed and imaged. LC3 is a protein that is expressed on autophagosomes and is seen as green puncta. When the autophagosome and lysosome fuse to form autolysosomes, the acidic pH inside of it causes degradation of GFP protein and only red puncta are visible (FIG. 26).

Consider `Oc1ccc2c(c1)COc1cc(O)ccc1-2` [UAS03, 6H-benzo[c]chromene-3,8-diol], for which the “tight junction protein levels (Western blots; Cldn4 confocal imaging)” value in assay [1] is “increased levels”. In addition, in assay [2], the “LPS-induced NF-κB activation in macrophages” value is listed as “reduced the NF-κB activation”. Besides, the “endothelial barrier leakage induced by VEGF” value in assay [3] was “protected from endothelial barrier leakage”. Also, in assay [4], the autophagy induction result is given as “induce autophagy”.

As to `O=c1oc2cc(O)ccc2c2ccc(O)cc12` [UroA, 3,8-dihydroxy-6H-dibenzo[b,d]pyran-6-one], the “expression of ZO-1 and Ocln1 (real time PCR)” value in assay [1] (HT29, 50 μM) is on record as “increase in expression”. In addition, in assay [1], the “tight junction protein levels (Western blots; Cldn4 confocal imaging)” value is “increased levels”. Moreover, the “LPS-induced NF-κB activation in macrophages” value in assay [2] is reported as “reduced the NF-κB activation”. Moreover, the “endothelial barrier leakage induced by VEGF” value in assay [3] was “protected from endothelial barrier leakage”. Moreover, the autophagy induction result in assay [4] is reported as “induce autophagy”.
